In patent US8853490B2 (priority 2010, dated 2014):
Where two headings read alike, the source gives them in different places.

What was measured:
[1] = test system: Fusarium verticillioides (FVE; isolate MO33); assay type: cell-based
[2] = test system: Fusarium graminearum (FGR; isolate 73B ISU); assay type: cell-based
[3] = test system: Diplodia maydis (DMA; isolate Warren-IN-96); conditions: general statement on parent polypeptides; cited from earlier work
[4] = test system: Fusarium graminearum (FGR; isolate 73B ISU); conditions: general statement on parent polypeptides; cited from earlier work
[5] = test system: Fusarium verticillioides (FVE; isolate MO33); conditions: general statement on parent polypeptides; cited from earlier work
[6] = test system: Colletotrichum graminicola (CGR; isolate Carroll-IA-99); conditions: general statement on parent polypeptides; cited from earlier work
[7] = test system: Diplodia maydis (DMA; isolate Warren-IN-96); assay type: cell-based
[8] = test system: Colletotrichum graminicola (CGR; isolate Carroll-IA-99); assay type: cell-based

Substance | In vitro antifungal activity (IC50) against F. verticillioides (FVE) [1] [ppm] | In vitro antifungal activity (IC50) against F. graminearum (FGR) ([2]; high salt conditions) [ppm] | In vitro antifungal activity (IC50) against F. graminearum (FGR) ([2]; low salt conditions) [ppm] | other results
LB-9827-3A-11E4: LBNL variant generated through gene shuffling of the LB-9827-1 mature peptide coding sequence (LSKYGGECSRKHNTCTYKKGGKNQIVNCPTAANKRCKTDRHHCEYDEYHRRVDCQTPV; LB-9827-3A-11E4) | 15 | 0.63 |  | 
LB-5220 (r2 6F2): LBNL variant generated through gene shuffling of the LB-5220 mature peptide coding sequence (LKYTGTCRRANNQCKYKGQNNRDTFVKCPTFANKKCTRDGEKCSFDSYSRAVTCD; LB-5220 (r2-6F2)) |  | >100 | >10 | 
LB-5220: parent antifungal polypeptide isolated from Penicillium simplicissimum, previously disclosed in U.S. Pat. No. 7,306,946 (LKYTGTCTRANNQCKYKGQNDRDTFVKCPTFANKKCTRDGAPCSFDSYSRAVTCD; listed as Penicillium simplicissimum) [reference compound] |  | >100 | >10 | antifungal activity against Diplodia maydis (DMA), in words [3]: exhibit antifungal activity; antifungal activity against Fusarium graminearum (FGR), in words [4]: exhibit antifungal activity; antifungal activity against Fusarium verticillioides (FVE), in words [5]: exhibit antifungal activity; antifungal activity against Colletotrichum graminicola (CGR), in words [6]: exhibit antifungal activity; In vitro antifungal activity (IC50) against D. maydis (DMA) ([7]; high salt conditions): 50 ppm; In vitro antifungal activity (IC50) against D. maydis (DMA) ([7]; low salt conditions): <0.1 ppm
LB-9827-1: parent antifungal polypeptide from the fungus Monascus ruber, previously disclosed in U.S. Pat. No. 7,306,946 (LSKFGGECSLKHNTCTYLKGGKNHVVNCGSAANKKCKSDRHHCEYDEHHKRVDCQTPV; Monascus ruber) [reference compound] |  | 1.5 | <0.1 | In vitro antifungal activity (IC50) against C. graminicola (CGR) ([8]; high salt conditions): 3 ppm; In vitro antifungal activity (IC50) against C. graminicola (CGR) ([8]; low salt conditions): 1.5 ppm; antifungal activity against Diplodia maydis (DMA), in words [3]: exhibit antifungal activity; antifungal activity against Fusarium graminearum (FGR), in words [4]: exhibit antifungal activity; antifungal activity against Fusarium verticillioides (FVE), in words [5]: exhibit antifungal activity; antifungal activity against Colletotrichum graminicola (CGR), in words [6]: exhibit antifungal activity; In vitro antifungal activity (IC50) against D. maydis (DMA) ([7]; high salt conditions): 12 ppm; In vitro antifungal activity (IC50) against D. maydis (DMA) ([7]; low salt conditions): 1.5 ppm
LB-5220 (ps 1B4): LBNL variant generated through gene shuffling of the LB-5220 mature peptide coding sequence (LKYTGTCTRKNNQCKYRGQNNRDTFVKCPTFANKRCTRDGAPCSFDSYSRAVTCD; Synthetic peptide LB-5220 (ps-1B4)) |  | >100 | >10 | 
LB-5220 (r2 5G7): LBNL variant generated through gene shuffling of the LB-5220 mature peptide coding sequence (LKYTGTCRRANNQCKYKGQNNRDTFVKCPTFANKKCTRDGAKCSFDSYSRAVTCD; Synthetic peptide LB-5220 (r2-5G7)) |  | >100 | >10 | 
LB-9827-3B-25F2: LBNL variant generated through gene shuffling of the LB-9827-1 mature peptide coding sequence (LSKYGGECSREHNTCTYLKGGKNQVVACGSAANKKCKRDRHHCEYDDYHKTVDCQTPV; Synthetic peptide LB-9827-3B-25F2) | 15 | 2.5 |  | 
LB-9827-3B-25G5: LBNL variant generated through gene shuffling of the LB-9827-1 mature peptide coding sequence (LSKYGGECSRAHNTCTYRKGGKNQVVKCGTAANKKCKSDRHHCEYDDYHKRVDCQTPV; Synthetic peptide LB-9827-3B-25G5) | 3.8 | 2.5 |  | 
LB-9827-3B-21E10: LBNL variant generated through gene shuffling of the LB-9827-1 mature peptide coding sequence (LSKYGGECSRAHNTCTYRKGGKNQVVNCPSAANKKCKSDRHHCEYDEYHKRVDCQTPV; Synthetic peptide LB-9827-3B-21E10) | 30 | 1.25 |  | 
